From publication PMC2678990, “Stilbene glycosides are natural product inhibitors of FGF-2-induced angiogenesis” (BMC Cell Biology, 2009)

What was measured:
BAEC [1] = assay: VEGF-induced proliferation; type: cell-based, bovine; settings: 72 h, NS = inhibition less than 50%
Procedure: (§1) Cells were seeded in triplicate at a concentration of 6.0 × 10^5/ml, in 2 ml of complete medium in 6-well plates. […] Growth factors, FGF-2 (25 ng/ml), EGF (75 ng/ml) and VEGF (10 ng/ml) and test compounds at different concentration were added and cells incubated for a further 72 h. Control wells were treated with 5 μl DMSO. Concentration ranges of test compounds and pre-incubation times were based on pilot studies. After 72 h, cells were washed in PBS, detached in 0.05%w/v trypsin in PBS, and counted on a Coulter counter (Coulter Electronics, Hialeah, FL) set to a threshold of 30 μm. Experiments were performed in triplicate and repeated at least twice.

BAEC [2] = assay: FGF-2-induced proliferation; type: cell-based, bovine; settings: Bos taurus, FGF-2 25 ng/ml, 72 h, NS = inhibition less than 50%
Procedure: as §1

HDMEC [3] = assay: FGF-2-induced chemotaxis, Boyden chamber assay; type: cell-based; settings: Homo sapiens, 6 h, FGF-2 25 ng/ml
Procedure: The effect of compounds 1 and 2 on cell migration was examined in vitro using a modified Boyden chamber system with 8.0 μm pore polycarbonate filter inserts (TSL, UK). The filter was coated overnight with 0.1%w/v gelatine, and air-dried. Cells (1 × 10^5) were placed in the upper part of the filter and test compounds at different concentrations with and without growth factors were added to the lower part in SPM. Cells were incubated at 37°C for 6 h and the filter removed and the upper side containing non migrated cells wiped and rinsed. The filters were fixed (4% paraformaldehyde), and stained (Geimsa) and cell migration in duplicate wells was determined by counting cell numbers on the lower surface. Experiments were performed in triplicate and at least two times.

BAEC [4] = assay: FGF-2 invasion in Matrigel; type: cell-based, bovine; settings: Bos taurus, FGF-2 25 ng/ml
Procedure: The effect of the test compounds on cell invasion was investigated using a Transwell Boyden chamber system coated with reconstituted growth factor-depleted Matrigel. […] Representative photomicrographs for the effect of compound 1 are shown (Figure 7B).
Figure 7 The effect of compounds 1 (AI) and 2 (AII) on BAEC invasion into a Matrigel layer was studied using the chemoinvasion assay described below. Cells (1.7 × 10^4) were added to the Matrigel coated upper Boyden chamber and the compounds with or without FGF-2 added to the lower chamber. Cell invasion was measured after 24 h and assessed as described below. […] Results are the mean of three experiments. (B) Representative photomicrographs are shown for the effect of compound 1 on BAEC (original magnification × 20).
The procedure described above was repeated and wells having a uniform network of tubes were used to assess invasion into a second layer of Matrigel. Matrigel (100 μl), with and without the test compounds was added to the cells and allowed to polymerise (1 h at 37°C). FCS (15%) was added and the cells incubated for 24–72 h when tube growth into the upper layer was measured as described above.

HDMEC [5] = assay: FGF-2 invasion in Matrigel; type: cell-based, human; settings: Homo sapiens, FGF-2 25 ng/ml
[6] = system: chick chorioallantoic membrane; assay: Chick chorioallantoic membrane (CAM) assay; type: in vivo
Procedure: The angiogenic activity of test compounds was determined using the semi-quantitative chick chorioallantoic assay (CAM) as described previously. To expose the CAM a window was created in the shells of 4 day-old chicken eggs. […] […] This approach enabled calculation of an accumulated response in each group. To photograph the membrane, 2 cm^3 of a 50% emulsion of aqueous paraffin oil containing 2% Tween-80 was injected at the site of application and photographed using a Leitz dissecting microscope. Each experiment was performed five times and statistical significance was determined by the Mann-Whitney U test and the data is expressed as a median value (m).

HDMEC [7] = assay: Toxicity: MTT and active caspase-3 assays; type: cell-based, human
Procedure: Stilbene glycoside toxicity was determined using the MTT and active caspase-3 assays. BAECs or HDMECs (7.5 × 10^3) were seeded in a 96 well plate and incubated for 4 h to allow cell adhesion. The test compound or staurosporine (1 μM), an inducer of active caspase-3 and therefore of apoptosis was added to the wells. Control cells were treated with PBS and the plate was incubated at room temperature for 72 hours. MTT reagent (10 μl) was added followed by incubation at room temperature for 2–4 h. When a purple precipitate was visible, detergent reagent (100 μl) was added to the plates and incubated at room temperature for 2 h in the dark. Absorbance was measured at 570 nm using a microplate reader.
In the apoptosis assay, HDMECs or BAEC (4 × 10^4/ml) in complete medium were added to the chambers slide and allowed to adhere for 24 h. The test compound (X μM) or staurosporine (1 μM) were added to all wells except control (PBS) and incubated for 24 hours. Wells treated with staurosporine were immediately washed (PBS) and fixed (4% paraformaldehyde) when cell morphology became round (2–4 h). After washing and fixing, cells were permeablized (0.1% Triton X-100; 10 min), washed (× 5~5 min each), air dried and blocked with 1% BSA in 1:50 TBS-Tween for 1 h at room temperature. Cells were incubated with goat anti-active caspase-3 (R&D system, UK; 1% BSA in TBS-Tween) for 1 h. […]

phospho-ERK1/2 in BAEC = assay: Western blot of ERK1/2 phosphorylation; type: cell-based, bovine; settings: BAEC; FGF-2 25 ng/ml; Western blot
Procedure: Figure 9 (A) Western blots of p-ERK-1 and -2 were performed on BAEC treated with compound 1 as described below. (B) The bar charts show relative protein expression compared to the control given an arbitrary value of 1.0. All experiments were performed at least twice and a representative example is shown. Lane 1 control, lane 2 FGF-2 (25 ng/ml), lane 3 compound 1 ([…]), lane 4 compound 1 (14.3 μM) + FGF-2, lane 5 compound 1 (28.6 μM), lane 6 compound 1 (28.6 μM) + FGF-2.
The method is described in detail elsewhere. In brief, cells were lysed in RIPA buffer, protein concentration determined using the Biorad assay, and approximately 20 μg aliquots separated by 12% SDS-PAGE, electroblotted onto nitrocellulose filters (Hoefer, San Francisco, Ca, USA), blocked overnight with 1% BSA in TBS-Tween and incubated for 4 h at RT with characterised antibodies to phosphor-ERK1/2 (AutogenBioclear, mouse monoclonal, 1:1000). α-Actin (Sigma, UK; 1:1000) was used as a loading control. Filters were washed in TBS-Tween and stained with antibodies to peroxidase-conjugated secondary antibody. Proteins were detected with the ECL system (Amersham, UK). Protein expression was estimated spectrophotometrically from band intensity. Results are semi-quantitative and given a numerical value compared to the weakest observed band assigned an arbitrary value of 1.0. […]

IC50 (HDMEC [3]): 21.5 ± 0.6 µM
IC50 (BAEC [4]): 11.1 ± 0.28 µM
IC50 (HDMEC [5]): 5.8 ± 0.18 µM
Inflammatory or angiogenic response of compound alone ([6]; 10 μg compound alone, without FGF-2): no inflammatory or angiogenic response
Compound: COc1cc(C=Cc2ccc(O)cc2)cc(OC2OC(COC3OC(C)C(O)C(O)C3O)C(O)C(O)C2OC2OC(C)C(O)C(O)C2O)c1 (centres unmarked) [Compound 1]
VEGF-induced proliferation, IC50 (BAEC [1]): no significant inhibitory effect
IC50 (BAEC [1]; Bos taurus): > 71.5 µM
IC50 (BAEC [2]): 48.9 ± 0.4 µM
In vivo CAM assay, inhibition of FGF-2-induced angiogenesis ([6]; 10 μg compound with FGF-2, 6 days exposure, listed as I): complete inhibition
Degree of angiogenesis (m), median score ([6]; 10 μg compound with FGF-2, scale 0 to 3 or greater): 0
Cytotoxic effect (HDMEC [7]): no significant cytotoxic effect
Inhibition of FGF-2-induced ERK1/2 phosphorylation (phospho-ERK1/2 in BAEC): inhibited
